This passage reports concentration results from patent US8466113B2, “4-isopropylphenyl glucitol compounds as SGLT1 inhibitors” (Taisho Pharmaceutical Co., Ltd., priority 2009, dated 2013).

This series in a line: Kidney concentrations until one week after single oral administration. The class given is in vivo. As to conditions: Sprague-Dawley (SD/IGS), rat, male Sprague-Dawley rats; for concentration at 24 h / concentration at 72 h / concentration at 168 h: single oral 1 mg/kg. How it is done:
(1) Changes in Kidney Concentrations of Compounds Disclosed in WO07/136116 Until One Week After Oral Administration
SD/IGS rats at 7 weeks of age (male, non-fasting, Charles River Laboratories Japan Inc.) were orally administered with compound 10 or 33 (1 mg/kg) or compound 11 (0.3 mg/kg) prepared in a 0.5% aqueous CMC solution. At 24, 72 and 168 hours after drug administration, the rats were exsanguinated via the postcaval vein under ether anesthesia, and their kidneys were excised after they were confirmed to be euthanized. After the tissue surface was washed with physiological saline, each tissue was measured for its weight and homogenized in 4 volumes of purified water under ice cooling. To each homogenate, an acetonitrile/methanol solution containing an internal standard substance was added to remove proteins, and the supernatant was then subjected to LC-MS/MS (Applied Biosystems API3000). Drug-derived ions generated by electrospray ionization in positive ion mode were detected by selective reaction monitoring. The peak area of the resulting extracted ion chromatogram was analyzed by the internal standard method to calculate the drug concentration in the homogenate.
The internal standard substance used for compounds 10 and 33 was (1S)-1,5-anhydro-1-[5-(4-ethoxybenzyl)-2-methoxy-4-methylphenyl]-1-thio-D-glucitol,ethyl-D5, while the internal standard substance used for compound 11 was compound 11 (trishydroxymethyl-D6; —C(CD2OH)3).

[1] abbreviates: read-out: Concentration of compounds in kidney After 1 day.
[2] abbreviates: read-out: Concentration of compounds in kidney After 3 days.
The mark [3] stands for this setting: read-out: Concentration of compounds in kidney After 7 days.

On to `Cc1cc(O)c([C@@H]2O[C@H](CO)[C@@H](O)[C@H](O)[C@H]2O)cc1Cc1ccc(CCNC(=O)NC(C)(C)CO)cc1` [compound 10], for which the concentration at 24 h under setting [1] amounted to 167 ± 36.3 ng/g. Also, under setting [2], the concentration at 72 h amounted to 124 ± 21.2 ng/g. Also, under setting [3], the concentration at 168 h was 53.8 ± 7.61 ng/g.
Take `Cc1cc(O)c([C@@H]2O[C@H](CO)[C@@H](O)[C@H](O)[C@H]2O)cc1Cc1ccc(CCNC(=O)NC(CO)(CO)CO)cc1` [compound 11]: the concentration at 1 day (single oral 0.3 mg/kg, mean ± S.D., read-out: Concentration of compounds in kidney After 1 day) came to 63.5 ± 20.1 ng/g. The concentration at 3 days (single oral 0.3 mg/kg, mean ± S.D., read-out: Concentration of compounds in kidney After 3 days) is 67.3 ± 3.15 ng/g. The concentration at 7 days (single oral 0.3 mg/kg, mean ± S.D., read-out: Concentration of compounds in kidney After 7 days) is 48.7 ± 18.3 ng/g.
On to `Cc1cc(O)c([C@@H]2O[C@H](CO)[C@@H](O)[C@H](O)[C@H]2O)cc1Cc1ccc(CCNC(=O)NC2CCN(Cc3ccccc3)CC2)cc1` [compound 33], for which the concentration at 24 h under setting [1] was found to be 29.8 ± 6.79 ng/g. The concentration at 72 h under setting [2] amounted to 25.5 ± 8.68 ng/g. The concentration at 168 h under setting [3] worked out at 16.2 ± 3.11 ng/g.
